# Reference: patent US6608176B2, “Taste receptor for umami (monosodium glutamate) taste” (University of Miami, priority 2000, dated 2003)
# Like-named read-outs stand apart in the source and are kept apart here.
# Legend:
# chorda tympani nerve = chorda tympani nerve recordings; cited from earlier work
# [1] = system: CHO cells transfected with non-recombinant pcDNA3.1 vector; assay: cAMP level in control CHO cells transfected with non-recombinant vector; type: cell-based, Chinese hamster; settings: for change of cAMP concentration in control cells: non-recombinant vector; for cAMP level relative to controls: n=9
# Procedure: (§1) CHO cells were transfected with brain-mGluR4 and taste-mGluR4 constructs and with non-recombinant pcDNA3.1 vector, all in parallel, using a cationic lipid, DMRIE-C (Gibco-BRL). Cells with stably integrated plasmid were selected and maintained in 300 μg per ml G418 starting 24 h after transfection. The medium consisted of Dulbecco's Modified Eagle Medium (D-MEM) supplemented with 10% fetal bovine serum, 2 mM glutamine, 1.7 mM proline and 100 units per ml penicillin-streptomycin^35. Clones were lifted within two weeks and screened for expression by western blot analysis. A single clone for each form was propagated for functional assays. Stably transfected but non-clonal lines of cells from independent transfections with both forms of mGluR4 and non-recombinant vector were also maintained and used in functional assays.
# (§2) CHO cells, stably transfected with brain-mGluR4, taste-mGluR4 or non-recombinant pcDNA3.1, were maintained as sub-confluent cultures and refed every two days to minimize chronic stimulation of expressed receptors by glutamate released from dead cells. Cells were plated 20 h before assay in a 96-well microtiter plate at 2×10^4 cells per 200 μl well. Fresh medium was replaced for one hour immediately before assaying receptor function as described^35. Briefly, cells were incubated in Dulbecco's phosphate buffered saline containing 1 mM IBMX for 20 min followed by stimulation for 10 min in 10 μM forskolin and 1 mM IBMX, with or without agonists. Stimulation buffer was rapidly removed, and cells were lysed in 200 μl 0.25% dodecyltrimethyl-ammonium bromide in 50 mM acetate buffer (Amersham, Piscataway, N.J.). Released cAMP in 20% of each lysate was assayed directly using an Amersham EIA-based kit and plotted as mean±s.e. of 3-6 experiments, each performed with triplicate wells of cells.
# brain-mGluR4 [2] = target: T1, brain-mGluR4 (Rattus norvegicus, UniProt P31423); assay: Suppression of forskolin-stimulated cAMP in CHO cells stably expressing brain-mGluR4; type: cell-based
# T1 construct: Full-length cDNAs for brain-mGluR4 and taste-mGluR4 were reconstructed; expressed in transfected cells
# Procedure: as §1, §2
# (§3) In transfected CHO cells, activation of group III mGluRs leads to a suppression of forskolin-stimulated cAMP synthesis^35. […] Thus, two separate lines of CHO cells expressing taste-mGluR4 were examined.
# taste-mGluR4 = target: T2, taste-mGluR4 (Rattus norvegicus, UniProt P31423); assay: Suppression of forskolin-stimulated cAMP in CHO cells stably expressing taste-mGluR4; type: cell-based
# T2 construct: expressed in transfected cells
# Procedure: as §1, §2, §3
# [3] = system: glossopharyngeal nerve / sensory afferents; settings: cited from earlier work
# MSG taste detection = settings: rats, behavioral assays; cited from earlier work
# brain-mGluR4 [4] = target: T1, brain-mGluR4; settings: cited from earlier work
# T2 sequence (P31423 309-912): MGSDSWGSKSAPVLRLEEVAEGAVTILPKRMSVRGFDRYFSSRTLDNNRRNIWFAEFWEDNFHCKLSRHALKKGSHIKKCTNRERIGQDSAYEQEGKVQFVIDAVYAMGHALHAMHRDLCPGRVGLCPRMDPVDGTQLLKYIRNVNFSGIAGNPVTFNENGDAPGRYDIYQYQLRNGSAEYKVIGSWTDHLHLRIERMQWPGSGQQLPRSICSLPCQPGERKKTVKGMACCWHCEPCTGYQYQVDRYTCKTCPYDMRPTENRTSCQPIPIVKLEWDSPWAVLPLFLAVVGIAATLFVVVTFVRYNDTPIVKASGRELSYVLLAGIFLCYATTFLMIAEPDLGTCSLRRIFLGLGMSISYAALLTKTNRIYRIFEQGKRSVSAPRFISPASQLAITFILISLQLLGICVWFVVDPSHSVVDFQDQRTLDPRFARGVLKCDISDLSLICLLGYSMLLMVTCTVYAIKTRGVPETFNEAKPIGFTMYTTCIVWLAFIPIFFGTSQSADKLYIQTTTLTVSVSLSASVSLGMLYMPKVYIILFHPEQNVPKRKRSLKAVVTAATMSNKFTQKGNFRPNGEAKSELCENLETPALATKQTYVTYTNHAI
# T1 sequence (P31423 33-912): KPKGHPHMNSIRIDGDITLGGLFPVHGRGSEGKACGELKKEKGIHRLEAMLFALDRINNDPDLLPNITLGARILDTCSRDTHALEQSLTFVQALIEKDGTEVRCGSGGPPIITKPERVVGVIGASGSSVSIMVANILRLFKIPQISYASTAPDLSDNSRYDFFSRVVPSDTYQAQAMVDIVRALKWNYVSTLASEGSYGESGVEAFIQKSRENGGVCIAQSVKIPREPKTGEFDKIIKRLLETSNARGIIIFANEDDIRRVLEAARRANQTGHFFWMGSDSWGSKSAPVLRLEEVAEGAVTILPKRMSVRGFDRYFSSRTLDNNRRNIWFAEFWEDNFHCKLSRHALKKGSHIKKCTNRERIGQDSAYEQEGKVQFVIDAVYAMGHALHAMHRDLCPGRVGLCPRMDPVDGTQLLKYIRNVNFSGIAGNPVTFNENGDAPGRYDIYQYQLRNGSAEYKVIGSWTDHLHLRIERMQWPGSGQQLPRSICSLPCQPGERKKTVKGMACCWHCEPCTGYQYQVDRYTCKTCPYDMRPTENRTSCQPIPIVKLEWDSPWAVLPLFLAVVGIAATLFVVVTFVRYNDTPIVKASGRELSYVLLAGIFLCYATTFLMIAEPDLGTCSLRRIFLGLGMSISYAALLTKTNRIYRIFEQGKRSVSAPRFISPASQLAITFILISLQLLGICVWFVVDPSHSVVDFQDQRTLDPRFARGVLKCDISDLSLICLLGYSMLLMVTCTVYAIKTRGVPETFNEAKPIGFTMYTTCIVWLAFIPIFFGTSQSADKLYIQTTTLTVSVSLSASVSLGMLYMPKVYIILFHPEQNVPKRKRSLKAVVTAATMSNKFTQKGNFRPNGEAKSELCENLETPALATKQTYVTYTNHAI
structure (smiles),measurement,setting,value
C[C@](N)(CCP(=O)(O)O)C(=O)O [MAP4],block of taste nerve responses to glutamate and L-AP4,chorda tympani nerve,fails to block
N[C@H](CCC(=O)O)C(=O)O [D-glutamate],change of cAMP concentration in control cells,[1],did not alter cAMP concentrations
same,cAMP level relative to controls,"brain-mGluR4 [2]; 1 MM D-glutamate, brain-mGluR4 cells",126±17%
same,cAMP level relative to controls,"taste-mGluR4; 1 MM D-glutamate, taste-mGluR4 cells",99±3%
"N[C@@H](CCC(=O)O)C(=O)[O-].[Na+] [L-MSG, monosodium L-glutamate]",detection threshold in recordings from sensory afferents,[3]; adult rodents,1 to 3 mM
same,detection threshold in recordings from sensory afferents,[3]; juvenile rodents,0.1 to 0.3 mM
NC(CCP(=O)(O)O)C(=O)O [L-AP4],change of cAMP concentration in control cells,[1],did not change
same,concentration near the MSG taste detection threshold,MSG taste detection,~100 µM
same,concentration above which the cAMP response saturates,"brain-mGluR4 [2]; brain-mGluR4 CHO cells, FIG. 4",above 10 μM
same,cAMP response,taste-mGluR4; 10 μM L-AP4,no response
same,cAMP response,taste-mGluR4; 100 μM and 1 mM L-AP4,progressively larger responses
same,EC50,"brain-mGluR4 [4]; brain mGluR4, literature ref 35, read-out: published EC50",0.5 to 1 µM
N[C@@H](CCC(=O)O)C(=O)O [L-glutamate],taste nerve threshold,[3]; adult mice and rats,2 to 10 mM
same,threshold for glutamate taste responses in the glossopharyngeal nerve,[3]; juvenile mice,100 µM
same,cAMP level relative to controls,[1]; 1 mM,127±16%
same,cAMP level relative to controls,[1]; 10 mM,132±19%
same,EC50,"brain-mGluR4 [2]; CHO cells stably expressing brain-mGluR4, 10 μM forskolin, 1 mM IBMX",2 µM
same,threshold concentration for activating taste-mGluR4,taste-mGluR4; CHO cells expressing taste-mGluR4,30 µM
same,EC50,"taste-mGluR4; CHO cells expressing taste-mGluR4, 10 μM forskolin, 1 mM IBMX, read-out: EC50 for L-glutamate for taste-mGluR4",280 µM
same,concentration needed for taste mGluR4 relative to brain-derived neurotransmitter mGluR4,"taste-mGluR4; CHO cells, taste vs brain mGluR4",about 100 fold
same,cAMP response,taste-mGluR4; at concentrations of 30 μM or below,no response
same,EC50,"taste-mGluR4; line with expression 2-fold lower than parallel brain-mGluR4 line, read-out: EC50, taste-mGluR4 CHO line",250 µM
same,EC50,"taste-mGluR4; line with expression 100-fold lower than parallel brain-mGluR4 line, read-out: EC50, taste-mGluR4 CHO line",300 µM
same,EC50,"brain-mGluR4 [4]; mGluR4a, literature ref 35, read-out: EC50 on mGluR4a, earlier reports",5 µM
